Our source for the IC50 values is patent US20240368177A1, “5-AMINO-6,8-DIHYDRO-1H-FURO[3,4-d]PYRROLO[3,2-b]PYRIDINE-2-CARBOXAMIDE DERIVATIVES AS MTA-COOPERATIVE INHIBITORS OF PRMT5” (BeiGene Switzerland GmbH, priority 2023, published 2024).

The test system of one assay is HCT116-mock-RNA-KO. Briefly: Cell killing in HCT116 isogenic pair (Cell Titer-Glo viability), mock knock-out cells with MTAP wildtype genotype. It is filed as cell-based, human. As to conditions: Homo sapiens, HCT-116, 144 h, 6 days incubation, 0-10 μM. From the text:
(§1) HCT116 cell line (ATCC, CCL-247) was isolated from the colon of an adult with colon cancer. It has a mutation in codon 13 of the ras proto-oncogene and can be used as a positive control for PCR assays of mutation in this codon. HCT116-MTAP-KO was knocked-out-MTAP-gene based HCT116, and a single clone was passed for this assay. HCT116-mock-RNA-KO was knocked-out-mock-gene based HCT116 with MTAP wildtype genotype. The base medium for HCT116 isogenic pair is RPMI 1640, HEPES (Gibco, 22400105). To make the complete growth medium, added the following components to the base medium: fetal bovine serum to a final concentration of 10% (Gibco, 10099-141C). The cell line was grown in a humidified 5% CO2 atmosphere at 37° C. and regularly tested for the presence of mycoplasma with MpcoAlert™ PLUS Mycoplasma Detection Kit (Lonzak LT07-710).
(§2) • Seeded HCT116-mock-RNA-KO (4E2/well) or HCT116-MTAP-KO (4E2/well) cells into a 96-well plate (Greiner: 655090), 100 μL/well. • Incubated at 37° C., 5% CO2, overnight. • Added 50 μL fresh growth medium containing serial dilution of test compounds for a final test compound concentration of 0-10 μM to each well. • Incubated at 37° C., 5% CO2, 6 days. • The cell viability was detected by Cell Titer-Glo (Promega, G7573). Added 70 μL of CeliTiter-Glo® reagent in each well. • Incubated at room temperature for 10 minutes to stabilize luminescent signal. • Analyzed with Microplate Reader (TECAN, SPARK) and fit IC50 using Prism® 9.
(In general: Cellular ATP, detected with luciferase, serves as a proxy for viable cell number.)

In another assay the test system is HCT116-MTAP-KO. Briefly: Cell killing in HCT116 isogenic pair (Cell Titer-Glo viability), MTAP knock-out cells. It is filed as cell-based, human. To be noted: Homo sapiens, HCT-116, 144 h, 6 days incubation, 0-10 μM, * = more than 50% viability inhibition at tested concentration without a full curve.
Source text: as §1, §2

A value given as a limit tells only on which side of the number the result lay.

Consider `N#Cc1cc(F)c(CN(Cc2c(F)cccc2F)C(=O)c2cc3nc(N)c4c(c3[nH]2)COC4)c(F)c1` [Example 22, 5-amino-N-(4-cyano-2,6-difluorobenzyl)-N-(2,6-difluorobenzyl)-6,8-dihydro-1H-furo[3,4-d]pyrrolo[3,2-b]pyridine-2-carboxamide], for which the IC50 is 11 nM with HCT116-mock-RNA-KO and less than 1.5 nM in the assay with HCT116-MTAP-KO.

Regarding `CO[C@@H]1CCOC[C@H]1N(Cc1ccc(-c2c(F)cccc2F)cn1)C(=O)c1cc2nc(N)c3c(c2[nH]1)CO[C@@H]3C` [Example 23, (R)-5-amino-N-((5-(2,6-difluorophenyl)pyridin-2-yl)methyl)-N-((3R,4R)-4-methoxytetrahydro-2H-pyran-3-yl)-6-methyl-6,8-dihydro-1H-furo[3,4-d]pyrrolo[3,2-b]pyridine-2-carboxamide], the IC50 in the assay with HCT116-mock-RNA-KO was 81 nM; with HCT116-MTAP-KO, 4.8 nM.

For the compound `CO[C@@H]1CCOC[C@H]1N(Cc1ccc(-c2c(F)cccc2F)cn1)C(=O)c1cc2nc(N)c3c(c2[nH]1)CO[C@H]3C` [Example 24, (S)-5-amino-N-((5-(2,6-difluorophenyl)pyridin-2-yl)methyl)-N-((3R,4R)-4-methoxytetrahydro-2H-pyran-3-yl)-6-methyl-6,8-dihydro-1H-furo[3,4-d]pyrrolo[3,2-b]pyridine-2-carboxamide], the IC50 in the assay with HCT116-mock-RNA-KO was determined as 8540 nM; in the assay on HCT116-MTAP-KO, 103 nM.

Take `Cn1ncnc1-c1ccc(CN(C(=O)c2cc3nc(N)c4c(c3[nH]2)COC4)[C@@H]2CCCc3cccnc32)nc1` [Example 25, (R)-5-amino-N-((5-(1-methyl-1H-1,2,4-triazol-5-yl)pyridin-2-yl)methyl)-N-(5,6,7,8-tetrahydroquinolin-8-yl)-6,8-dihydro-1H-furo[3,4-d]pyrrolo[3,2-b]pyridine-2-carboxamide]: the IC50 with HCT116-mock-RNA-KO was 2000 nM; in the assay on HCT116-MTAP-KO, 96 nM.

As for `CO[C@@H]1CCOC[C@H]1N(Cc1ccc(C(F)(F)F)cn1)C(=O)c1cc2nc(N)c3c(c2[nH]1)COC3` [Example 26, 5-amino-N-((3R,4R)-4-methoxytetrahydro-2H-pyran-3-yl)-N-((5-(trifluoromethyl)pyridin-2-yl)methyl)-6,8-dihydro-1H-furo[3,4-d]pyrrolo[3,2-b]pyridine-2-carboxamide], the IC50 was 1870 nM in the assay on HCT116-mock-RNA-KO and 14 nM with HCT116-MTAP-KO.

Consider `CO[C@@H]1CCOC[C@H]1N(Cc1ccc(-c2ccccc2)cn1)C(=O)c1cc2nc(N)c3c(c2[nH]1)COC3` [Example 27, 5-amino-N-((3R,4R)-4-methoxytetrahydro-2H-pyran-3-yl)-N-((5-phenylpyridin-2-yl)methyl)-6,8-dihydro-1H-furo[3,4-d]pyrrolo[3,2-b]pyridine-2-carboxamide], for which the 50% inhibitory concentration (IC50) in the assay on HCT116-mock-RNA-KO stood at 284 nM; in the assay with HCT116-MTAP-KO, 2.4 nM.

Regarding `CO[C@@H]1CCOC[C@H]1N(Cc1ccc(-c2ccncc2)cn1)C(=O)c1cc2nc(N)c3c(c2[nH]1)COC3` [Example 28, N-([3,4′-bipyridin]-6-ylmethyl)-5-amino-N-((3R,4R)-4-methoxytetrahydro-2H-pyran-3-yl)-6,8-dihydro-1H-furo[3,4-d]pyrrolo[3,2-b]pyridine-2-carboxamide], the IC50 in the assay on HCT116-mock-RNA-KO amounted to 1900 nM; with HCT116-MTAP-KO, 11 nM.

Turning to `Nc1nc2cc(C(=O)N(Cc3ccc(-c4ccncc4)cn3)Cc3c(F)cccc3F)[nH]c2c2c1COC2` [Example 29, N-([3,4′-bipyridin]-6-ylmethyl)-5-amino-N-(2,6-difluorobenzyl)-6,8-dihydro-1H-furo[3,4-d]pyrrolo[3,2-b]pyridine-2-carboxamide], the values for the IC50 in the assay on HCT116-mock-RNA-KO and in the assay on HCT116-MTAP-KO were 81 nM and 1.3 nM, respectively.

`Nc1nc2cc(C(=O)N(Cc3ccc(-c4c(F)cncc4F)cn3)Cc3c(F)cccc3F)[nH]c2c2c1COC2` [Example 30, 5-amino-N-((3′,5′-difluoro-[3,4′-bipyridin]-6-yl)methyl)-N-(2,6-difluorobenzyl)-6,8-dihydro-1H-furo[3,4-d]pyrrolo[3,2-b]pyridine-2-carboxamide]: the IC50 in the assay with HCT116-mock-RNA-KO came out at 22 nM; with HCT116-MTAP-KO it was 0.8 nM.

Regarding `Nc1nc2cc(C(=O)N(Cc3ccc(-c4c(F)cncc4F)cn3)Cc3c(Cl)cccc3Cl)[nH]c2c2c1COC2` [Example 31, 5-amino-N-(2,6-dichlorobenzyl)-N-((3′,5′-difluoro-[3,4′-bipyridin]-6-yl)methyl)-6,8-dihydro-1H-furo[3,4-d]pyrrolo[3,2-b]pyridine-2-carboxamide], the concentration for half-maximal inhibition (IC50) in the assay on HCT116-mock-RNA-KO came out at 7.1 nM; in the assay on HCT116-MTAP-KO, 1.2 nM.

As for `N#Cc1ccc(CN(Cc2c(F)cccc2F)C(=O)c2cc3nc(N)c4c(c3[nH]2)COC4)nc1` [Example 32, 5-amino-N-((5-cyanopyridin-2-yl)methyl)-N-(2,6-difluorobenzyl)-6,8-dihydro-1H-furo[3,4-d]pyrrolo[3,2-b]pyridine-2-carboxamide], the results for the IC50 with HCT116-mock-RNA-KO and in the assay on HCT116-MTAP-KO were 451 nM and 3.9 nM, respectively.

As for `Nc1nc2cc(C(=O)N(Cc3c(F)cccc3F)CC3CC3)[nH]c2c2c1COC2` [Example 33, 5-amino-N-(cyclopropylmethyl)-N-(2,6-difluorobenzyl)-6,8-dihydro-1H-furo[3,4-d]pyrrolo[3,2-b]pyridine-2-carboxamide], the IC50 in the assay on HCT116-mock-RNA-KO is greater than 10000 nM; in the assay on HCT116-MTAP-KO it was 210 nM.

Consider `CO[C@@H]1CCOC[C@H]1N(Cc1ncc(C(F)(F)F)cc1F)C(=O)c1cc2nc(N)c3c(c2[nH]1)COC3` [Example 34, 5-amino-N-((3-fluoro-5-(trifluoromethyl)pyridin-2-yl)methyl)-N-((3R,4R)-4-methoxytetrahydro-2H-pyran-3-yl)-6,8-dihydro-1H-furo[3,4-d]pyrrolo[3,2-b]pyridine-2-carboxamide], for which the IC50 in the assay on HCT116-mock-RNA-KO was found to be 1350 nM; in the assay with HCT116-MTAP-KO it was 7.4 nM.

Consider `C[C@H](c1ncccn1)N(Cc1ncc(C(F)(F)F)cc1F)C(=O)c1cc2nc(N)c3c(c2[nH]1)COC3` [Example 35, (R)-5-amino-N-((3-fluoro-5-(trifluoromethyl)pyridin-2-yl)methyl)-N-(1-(pyrimidin-2-yl)ethyl)-6,8-dihydro-1H-furo[3,4-d]pyrrolo[3,2-b]pyridine-2-carboxamide], for which the half-inhibitory concentration (IC50) was 1530 nM in the assay on HCT116-mock-RNA-KO and 11 nM in the assay on HCT116-MTAP-KO.

In the case of `CO[C@@H]1CCOC[C@H]1N(Cc1ccc(C2CC2)cn1)C(=O)c1cc2nc(N)c3c(c2[nH]1)COC3` [Example 36, 5-amino-N-((5-cyclopropylpyridin-2-yl)methyl)-N-((3R,4R)-4-methoxytetrahydro-2H-pyran-3-yl)-6,8-dihydro-1H-furo[3,4-d]pyrrolo[3,2-b]pyridine-2-carboxamide], the IC50 was determined as 445 nM with HCT116-mock-RNA-KO and 5.8 nM in the assay on HCT116-MTAP-KO.

Consider `Nc1nc2cc(C(=O)N(Cc3ccc(C(F)(F)F)nn3)Cc3c(F)cccc3F)[nH]c2c2c1COC2` [Example 37, 5-amino-N-(2,6-difluorobenzyl)-N-((6-(trifluoromethyl)pyridazin-3-yl)methyl)-6,8-dihydro-1H-furo[3,4-d]pyrrolo[3,2-b]pyridine-2-carboxamide], for which the IC50 in the assay on HCT116-mock-RNA-KO is 1680 nM; in the assay on HCT116-MTAP-KO, 13 nM.

For `C[C@H]1OCc2c1c(N)nc1cc(C(=O)N(Cc3ccc(C(F)(F)F)cn3)Cc3ncccc3F)[nH]c21` [Example 38, (R)-5-amino-N-((3-fluoropyridin-2-yl)methyl)-6-methyl-N-((5-(trifluoromethyl)pyridin-2-yl)methyl)-6,8-dihydro-1H-furo[3,4-d]pyrrolo[3,2-b]pyridine-2-carboxamide], the concentration for half-maximal inhibition (IC50) came to 665 nM in the assay with HCT116-mock-RNA-KO and 6.3 nM in the assay with HCT116-MTAP-KO.

One may read the IC50 as the midpoint of a concentration-inhibition curve. The low end stands for higher potency, the high end for lower potency.
